The subject of experiment [1] is A30/T30 duplex (DNA, duplex) AAAAAAAAAAAAAAAAAAAAAAAAAAAAAA/TTTTTTTTTTTTTTTTTTTTTTTTTTTTTT
The experiment in a line: SGI staining fluorescence. Conditions: 100 mM NaCl; 10 mM PB pH 7; 100 nM DNA, 0.5x SGI.

For experiment [2], the system named is Adenosine aptamer (Aptade), 4 bp (DNA, aptamer) ACCTGGGGGAGTATTGCGGAGGAAGGT
The experiment in a line: ThT fluorescence enhancement. Conditions: 100 mM NaCl, 10 mM MgCl2; 10 mM PB pH 7; 100 nM aptamer.

Each structure is given as a SMILES string.

For `CCCN(CCCN(C)C)c1cc(C=C2Sc3ccccc3N2C)c2ccccc2[n+]1-c1ccccc1`, the binding result in experiment [1] is reported as “yes”.
With `Cc1ccc2c(c1)sc(-c1ccc(N(C)C)cc1)[n+]2C`, the binding entry in experiment [2] was “yes”.
